Results taken from patent US7977352B2, “Triazolopyridine compounds useful for the treatment of degenerative and inflammatory diseases” (Galapagos NV, priority 2006, dated 2011).

Experiments:
[1] = tested on: MMP1 expression by activated synovial fibroblasts (RASFs); experiment: MMP assay: MMP1 expression by RASFs triggered with TNF-α (MMP1 ELISA); format: cell-based; settings: Fibroblast, 48 h, TNF-α trigger 10 ng/mL, semi-quantitative score, read-out: REDUCTION MMP1/TNFa
Description: A 384-well format ELISA for measurement of MMP1 is developed. Various primary antibodies are tested, as well as various ELISA protocols. The following protocol is developed and validated to measure MMP1 levels in SF supernatant in 384 well plates: white Lumitrac 600 384 well plates (Greiner) are coated with 2 μg/mL anti-MMP1 antibody MAB1346 (Chemicon). The antibody is diluted in buffer 40 (1.21 g Tris base (Sigma), 0.58 g NaCl (Calbiochem) and 5 mL 10% NaN3 (Sigma) in 1 L milliQ water and adjusted to pH 8.5). After overnight incubation at 4° C., plates are washed with PBS (80 g NaCl, 2 g KCl (Sigma), 11.5 g Na2HPO4.7H2O and 2 g KH2PO4 in 10 L milliQ; pH 7.4) and blocked with 100 μL/well Casein buffer (2% Casein (VWR International) in PBS). Next day, casein buffer is removed from ELISA plates and replaced by 50 μL/well EC buffer (4 g casein, 2.13 g Na2HPO4 (Sigma), 2 g bovine albumin (Sigma), 0.69 g NaH2PO4.H2O (Sigma), 0.5 g CHAPS (Roche), 23.3 g NaCl, 4 mL 0.5 M EDTA pH 8 (Invitrogen), 5 mL 10% NaN3 in 1 L milliQ and adjusted to pH 7.0). 0.25 mM DTT (Sigma) is added to the thawed sample plates. After removal of the EC buffer, 20 μL of sample is transferred to the ELISA plates. After overnight incubation at 4° C. plates are washed twice with PBS and once with PBST (PBS with 0.05% Tween-20 (Sigma)) and incubated with 35 μL/well biotinylated anti-MMP1 antibody solution (R&D). This secondary antibody is diluted in buffer C (0.82 g NaH2PO4.H2O, 4.82 g Na2HPO4, 46.6 g NaCl, 20 g bovine albumin and 4 mL 0.5M EDTA pH 8 in 2 L milliQ and adjusted to pH 7.0) at a concentration of 5 μg/mL. After 2 h of incubation at RT, plates are washed as described above and incubated with 50 μL/well streptavidin-HRP conjugate (Biosource). Streptavidin-HRP conjugate is diluted in buffer C at a concentration of 0.25 μg/mL. After 45 min, plates are washed as described above and incubated for 5 min with 50 μL/well BM Chem ELISA Substrate (Roche). Readout is performed on the Luminoscan Ascent Luminometer (Labsystems) with an integration time of 200 msec or with an Envision reader (Perkin Elmer).
SFs were acquired at passage 1 from a commercial supplier (Cell applications, Inc.). SFs are cultured in DMEM supplemented with 10% heat-inactivated FBS, 1× penicillin/streptomycin (Invitrogen) at 37° C., 10% CO2 until passage 6. Aliquots of the cells are frozen and cryopreserved in liquid nitrogen. Starting from a cryopreserved aliquot, cells are further expanded by sub-culturing cells at 1/3 ratio every week. Cells between passage 10 and 12 are routinely used in compound testing according to following protocol.
Starting from the compound master stocks (all at 10 mM concentration in 100% DMSO) a 3-fold serial dilution is made in 96-well plates in 100% DMSO. Then, plates are further diluted 45-fold in M199 medium supplemented with 1% heat-inactivated FBS to obtain a intermediate work stock.
At day 1, RASFs are seeded in 96 well plates (flat bottom, tissue culture treated, Greiner) at a density of 3000 cells/well in complete synovial growth medium (Cell Applications). Day 5, the medium is completely removed from the cells, and replaced by 81 μL of M199 medium supplemented with 1% heat-inactivated FBS followed by addition of 10 μL compound out of the intermediate work stock. After an incubation period of 90 minutes, which allows the compounds to equilibrate and enter the cells, cells are stimulated with either TNF-α or ‘complex trigger’. TNF-α trigger is added in a volume of […] to obtain final concentration of 10 ng/mL. For that, TNF-α stock (PeproTech) at 10 μg/mL was diluted to 100 ng/mL TNF-a in M199 medium supplemented with 1% FBS. ‘Complex trigger’ mix is added in a volume of 20 μL to obtain a final concentration of 12.5%. For that, ‘complex trigger’ mix, is diluted to 80% with M199 medium supplemented with 1% FBS. […]

TAK1-TAB1 fusion protein = molecular target: T1, TAK1-TAB1 fusion protein (Homo sapiens, UniProt O43318); experiment: In vitro TAK1 kinase assay; format: biochemical; settings: casein substrate, [33P]-γ-ATP, 90 minutes at 30° C., semi-quantitative score, read-out: POTENCY TAK1 (MAP3K7)
T1 construct: purchased Upstate 14-600
T1 sequence (O43318 with tags, fused parts or gaps limits assumed): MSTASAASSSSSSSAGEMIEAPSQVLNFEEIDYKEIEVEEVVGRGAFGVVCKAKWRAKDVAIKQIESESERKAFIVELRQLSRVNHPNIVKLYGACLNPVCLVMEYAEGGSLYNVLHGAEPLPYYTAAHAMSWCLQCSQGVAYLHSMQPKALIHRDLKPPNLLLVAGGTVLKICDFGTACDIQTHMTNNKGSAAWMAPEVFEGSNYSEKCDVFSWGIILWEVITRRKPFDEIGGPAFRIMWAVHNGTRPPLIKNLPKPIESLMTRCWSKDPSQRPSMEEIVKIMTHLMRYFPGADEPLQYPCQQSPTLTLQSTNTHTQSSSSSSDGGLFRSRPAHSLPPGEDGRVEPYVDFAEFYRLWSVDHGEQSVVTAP
Description: For assessing TAK1 inhibition, active TAK1-TAB1 fusion protein was used from Upstate (Cat. No, 14-600). Kinase reactions are set up in 96-well polypropylene plates in 25 μL containing 0.5 mU TAK1-TAB1 fusion protein, 5mM ATP, 0.01 μCi/μL [^33P]-γ-ATP, 0.1 mg/mL casein substrate in 1× reaction buffer containing 10 mM MOPS pH 7.0, 1 mM EDTA.
Starting from the compound master stocks (all at 10 mM concentration in 100% DMSO) a 3-fold serial dilution is made in 96-well plates in 100% DMSO. Plates are further diluted […] in H2O containing 3.5% DMSO, to obtain an intermediate work stock with compounds at 5× the final assay concentration in 5% DMSO.
5 μL of the intermediate stock is transferred into V-bottom 96 well polypropylene plates and 11 μL of Enzyme mix is added. Enzyme mix is made by combining 5 μL 5× reaction buffer ([…] pH 7.0, 1 mM EDTA), 5 μL casein (Sigma) diluted in H20 to 0.5 mg/mL and 1 μL of TAK1-TAB1 fusion protein that was prediluted to 0.5 mU/μL in 1× enzyme dilution buffer (20 mM MOPS pH 7.0, 0.1 mM EDTA, 0.01% Brij-35, 5% glycerol, 1 mM DTT, 1 mg/ml BSA).
The reactions are started by the addition of 9 μL of mixture containing ATP (20.83 uM) and [^33P]-γ-ATP (0.028 μCi/μL).
The assay is stopped 90 minutes after incubation at 30° C. by the addition of 25 μL phosphoric acid (150 mM). The label incorporated into the casein substrate is separated from labeled unincorporated ATP by filtration onto 96-well filter plates using a harvester device. After 6 washes with 75 mM phosphoric acid, the bottom of the filter plates are sealed, and incorporated label is quantified after addition of 40 μL scintillation fluid using TopCount.

[2] = tested on: MMP1 expression by activated SFs; experiment: MMP assay proof of principle: MMP1 produced by complex trigger activated SFs; format: cell-based; settings: Homo sapiens, supernatant of THP-1 cells treated with TNF-a (50% diluted), 48 hrs, FIG. 3, read-out: IC50 value, reduction of MMP1 expression by SFs
Description: A 384-well format ELISA for measurement of MMP1 is developed. Various primary antibodies are tested, as well as various ELISA protocols. The following protocol is developed and validated to measure MMP1 levels in SF supernatant in 384 well plates: white Lumitrac 600 384 well plates (Greiner) are coated with 2 μg/mL anti-MMP1 antibody MAB1346 (Chemicon). The antibody is diluted in buffer 40 (1.21 g Tris base (Sigma), 0.58 g NaCl (Calbiochem) and 5 mL 10% NaN3 (Sigma) in 1 L milliQ water and adjusted to pH 8.5). After overnight incubation at 4° C., plates are washed with PBS (80 g NaCl, 2 g KCl (Sigma), 11.5 g Na2HPO4.7H2O and 2 g KH2PO4 in 10 L milliQ; pH 7.4) and blocked with 100 μL/well Casein buffer (2% Casein (VWR International) in PBS). Next day, casein buffer is removed from ELISA plates and replaced by 50 μL/well EC buffer (4 g casein, 2.13 g Na2HPO4 (Sigma), 2 g bovine albumin (Sigma), 0.69 g NaH2PO4.H2O (Sigma), 0.5 g CHAPS (Roche), 23.3 g NaCl, 4 mL 0.5 M EDTA pH 8 (Invitrogen), 5 mL 10% NaN3 in 1 L milliQ and adjusted to pH 7.0). 0.25 mM DTT (Sigma) is added to the thawed sample plates. After removal of the EC buffer, 20 μL of sample is transferred to the ELISA plates. […] Readout is performed on the Luminoscan Ascent Luminometer (Labsystems) with an integration time of 200 msec or with an Envision reader (Perkin Elmer). […]

| SMILES | IC50 (TAK1-TAB1 fusion protein) [µM] | IC50 [2] [µM] | IC50 [1] [µM] |
| --- | --- | --- | --- |
| C[C@@H]1CN(C)[C@@H](C)CN1c1ccc(Nc2ccc(-c3cc[nH]c(=O)c3)n3ncnc23)cc1F (relative stereo) [Example 11, rel-4-[8-({3-fluoro-4-[(2R,5S)-2,4,5-trimethylpiperazin-1-yl]phenyl}amino)[1,2,4]triazolo[1,5-a]pyridin-5-yl]pyridin-2(1H)-one] | < 0.5 | – | 1 to 5 |
| NC(=O)c1cccc(-c2ccc(Nc3ccc(N4CCOCC4)cc3)c3ncnn23)c1 [Example 43, 3-{8-[(4-morpholin-4-ylphenyl)amino][1,2,4]triazolo[1,5-a]pyridin-5-yl}benzamide] | > 10 | – | > 10 |
| CC(C)N1CCN(c2ccc(Nc3ccc(-c4c[nH]c(=O)[nH]c4=O)n4ncnc34)cc2)CC1 [Example 55, 5-(8-{[4-(4-isopropylpiperazin-1-yl)phenyl]amino}[1,2,4]triazolo[1,5-a]pyridin-5-yl)pyrimidine-2,4(1H,3H)-dione] | > 10 | – | > 10 |
| O=c1cc(-c2ccc(Nc3ccc(N4CCN(C5CCC5)CC4)cc3)c3ncnn23)cc[nH]1 [Example 24, 4-(8-{[4-(4-cyclobutylpiperazin-1-yl)phenyl]amino}[1,2,4]triazolo[1,5-a]pyridin-5-yl)pyridin-2(1H)-one] | < 0.5 | – | 1 to 5 |
| COc1cc(-c2ccc(Nc3ccc(N4CCN(CCC(C)C)CC4)cc3)c3ncnn23)ccn1 [Example 29, 5-(2-methoxypyridin-4-yl)-N-{4-[4-(3-methylbutyl)piperazin-1-yl]phenyl}[1,2,4]triazolo[1,5-a]pyridin-8-amine] | > 10 | – | 1 to 5 |

Now from value to compound, other results behind:

| IC50 (TAK1-TAB1 fusion protein) [µM] | IC50 [2] [µM] | SMILES | IC50 [1] [µM] |
| --- | --- | --- | --- |
| 1 to 5 | – | CC(C)N1CCN(c2ccc(Nc3ccc(-c4cccc5[nH]ccc45)n4ncnc34)cc2)CC1 [Example 49, 5-(1H-indol-4-yl)-N-[4-(4-isopropylpiperazin-1-yl)phenyl][1,2,4]triazolo[1,5-a]pyridin-8-amine] | > 10 |
| – | ~0.001 | C[C@@H]1C[C@H]2[C@@H]3CCC4=CC(=O)C=C[C@]4(C)[C@@]3(F)[C@@H](O)C[C@]2(C)[C@@]1(O)C(=O)CO [dexamethasone] | – |
| 1 to 5 | – | NC(=O)c1ccc(-c2ccc(Nc3ccc(N4CCN(C5CC5)CC4)cc3)c3ncnn23)cc1 [Example 18, 4-(8-{[4-(4-cyclopropylpiperazin-1-yl)phenyl]amino}[1,2,4]triazolo[1,5-a]pyridin-5-yl)benzamide] | 1 to 5 |
